Measurements: patent US4468469A, “Substituted phenylacetic acids and salts as TBP blocking agents in iodothyronine immunoassays” (Miles Laboratories, Inc., priority 1982, dated 1984)

Assays:
[1] = system: serum proteins (thyroxine binding protein, TBP); test: Effect of pH on the dissociation of iodothyronine from serum proteins; parameters: species or system human; details: over the range pH 6.0-8.0; 2.0 mM
Method: Radioactive iodine labeled thyroxine (^125 I-thyroxine obtained from Amersham-Searle, Arlington Heights, IL, USA) was equilibrated with 5 ml of normal human serum for 48 hours at 4° C. […] After 5 minutes of incubation at room temperature, a 165 μl aliquot was applied to a Sephadex® column from a Seralute® thyroxine assay kit (Miles Laboratories, Inc., Ames Division, Elkhart, IN, USA), which had been equilibrated with 0.1M sodium phosphate, pH 7.0. The total radioactivity applied to the columns was measured and the undissociated material was washed through the column with 3 ml of buffer. The columns were counted to determine the percentage of thyroxine dissociated from the serum proteins.
Using the column procedure described in the second study in Example 1, the pH of the 0.1M sodium phosphate was varied and the concentration of the dissociating agent held constant at 2.0 mM. The columns were equilibrated with buffer containing the dissociating agent at the given pH and 165 μl of the serum diluted in buffer at the given pH (as described above) was applied to the column. The total counts were measured and then the columns were washed with buffer at the given pH. The counts remaining on the column represent the percentage of iodothyronine dissociated.

[2] = Optical absorption spectra; assay type: physicochemical
[3] = system: anti(thyroxine) antiserum / apoglucose oxidase; test: Apoenzyme reactivation immunoassay system for serum thyroxine; assay type: biochemical; details: 2 mM sodium salt of dissociating agent in buffer
Method: Standard curves for serum thyroxine were generated using a semiautomated assay protocol on the Gilford Clinical Chemistry Analyzer System 203-S (Gilford Instrument Laboratories, Oberline, OH, USA). […] The FAD-thyroxine conjugate (40 nM in 0.1M sodium phosphate, pH 7.0, 0.01% Triton X-100) as a 0.05 ml aliquot was added to the reaction cup and allowed to equilibrate for 30 seconds. The reaction was initiated by addition of 0.10 ml 1.0 μM apoglucose oxidase, 2 mM 4-aminoantipyrine, 12% glycerol, 80 mM sodium phosphate, pH 7.0. The absorbance at 520 nm was recorded after an 8 minute incubation.

[4] = molecular target: apoglucose oxidase (Aspergillus niger, UniProt P13006); test: Activation of apoglucose oxidase by FAD-labeled conjugate (ANS comparison); assay type: biochemical
Method: For the purposes of comparison, a series of apoenzyme reactivation measurements were set up with different concentrations of the conventionally used blocking agent ANS. The following reagents were prepared:
0.105M potassium phosphate buffer, pH 7.0
1.1% (w:v) bovine serum albumin
5.26 nM FAD-labeled conjugate, supra
4 μM apoglucose oxidase, supra
50 mM phosphate buffer, pH 7.0
Apoenzyme activity was determined by placing 50 μl of Reagent B in a cuvette and starting the reaction by addition of 1.90 ml of Reagent A. The assay reactions were incubated for 10 minutes at room temperature and the absorbances at 520 nm recorded.

[5] = 50 μM solution in 0.1M phosphate buffer, pH 7.0

apoglucose oxidase, sequence (P13006 17-605): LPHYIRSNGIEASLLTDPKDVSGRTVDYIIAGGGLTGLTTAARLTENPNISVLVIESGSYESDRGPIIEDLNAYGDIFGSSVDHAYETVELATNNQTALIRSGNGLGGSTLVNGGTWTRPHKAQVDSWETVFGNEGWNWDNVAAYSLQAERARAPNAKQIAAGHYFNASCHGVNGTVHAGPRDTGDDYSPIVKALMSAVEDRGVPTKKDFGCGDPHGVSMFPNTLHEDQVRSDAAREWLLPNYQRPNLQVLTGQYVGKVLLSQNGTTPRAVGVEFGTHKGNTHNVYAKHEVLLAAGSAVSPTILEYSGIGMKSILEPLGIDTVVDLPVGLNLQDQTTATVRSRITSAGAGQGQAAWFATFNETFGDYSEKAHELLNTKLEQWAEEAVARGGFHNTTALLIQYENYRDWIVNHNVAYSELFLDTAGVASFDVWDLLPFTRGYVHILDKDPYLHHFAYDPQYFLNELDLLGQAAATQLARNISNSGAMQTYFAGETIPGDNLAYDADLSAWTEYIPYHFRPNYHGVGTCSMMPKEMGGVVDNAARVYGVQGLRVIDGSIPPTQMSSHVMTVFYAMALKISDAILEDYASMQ

Row | SMILES | pH dependence of the dissociation of iodothyronine from serum proteins [1] | λmax ([2]; in 0.1M sodium hydroxide) [nanometers] | λmin ([2]; in 0.1M sodium hydroxide) [nanometers] | ε min (NaOH), extinction coefficient ([2]; in 0.1M sodium hydroxide, at λmin) [M⁻¹ cm⁻¹] | Absorbance (520 nm) ([3]; Thyroxine Standard 0 μg/L) | Absorbance (520 nm) ([3]; Thyroxine Standard 25 μg/L) | Absorbance (520 nm) ([3]; Thyroxine Standard 75 μg/L) | Absorbance (520 nm) ([3]; Thyroxine Standard 125 μg/L) | Absorbance (520 nm) ([3]; Thyroxine Standard 200 μg/L) | activity at 100 µM ([4]; 10 min, pH 7, 0.1 mM ANS in Reagent A, room temperature, read-out: Percent Apoglucose Oxidase Activity) [%] | activity at 200 µM ([4]; 10 min, pH 7, 0.2 mM ANS in Reagent A, room temperature, read-out: Percent Apoglucose Oxidase Activity) [%] | activity at 500 µM ([4]; 10 min, pH 7, 0.5 mM ANS in Reagent A, room temperature, read-out: Percent Apoglucose Oxidase Activity) [%] | activity at 1000 µM ([4]; 10 min, pH 7, 1.0 mM ANS in Reagent A, room temperature, read-out: Percent Apoglucose Oxidase Activity) [%] | effect on the recombination reaction of apoglucose oxidase and FAD-labeled conjugate ([4]; ANS concentrations above about 1.0 mM) | broad absorption band [2, 5] | wavelength of absorption peak [2, 5] | absorption peak height ([2]; 50 μM solution in 0.1M phosphate buffer, pH 7.0, at about 350 nm)
1 | O=C(O)Cc1ccccc1Nc1c(Cl)cccc1Cl [Diclofenac, 2-(2,6-dichlorophenylamino)phenylacetic acid] | independent of pH | 275 | 248 | 6400 | 0.619 | 0.620 | 0.647 | 0.678 | 0.719 | – | – | – | – | – | – | – | –
2 | O=S(=O)(O)c1cccc2cccc(Nc3ccccc3)c12 [ANS, 8-anilino-1-naphthalenesulfonic acid] | – | – | – | – | – | – | – | – | – | 64 | 46 | 13 | 0 | totally inhibit | 300-400 nm | about 350 nm | 0.5
